Reference: patent publication US8629144B2, “Polymorphic and hydrate forms, salts and process for preparing 6-{difluoro[6-(1-methyl-1H-pyrazol-4-yl)[1,2,4]triazolo[4,3-b]pyridazin-3-yl]methyl}quinoline” (Janssen Pharmaceutica NV, priority 2007, dated 2014)
Values after ≈ are worked out from the molar mass of the structure shown. Where two headings read alike, the source gives them in different places.

How the values were obtained:
Assay type in all cases: physicochemical
[1] = Crystallographic stability of Form I on storage (TGA, DSC, XRPD, IR); set-up: key to IR: ±Ref: contain some small extra signals
Procedure: The stability of the crystal structure of polymorph Form I of the compound (I) was studied after storage of the compound in open conditions for a period of six weeks at room temperature (RT) under <5%, 56% and 75% relative humidity (RH) at 50° C., and at 40° C. and 75% RH.
The samples were analysed by TGA, DSC, XRPD and IR spectroscopy.

[2] = Chemical stability of Form I on storage (HPLC, visual inspection)
Procedure: Chemical stability of Form I was tested in different open storage conditions for periods of 1, 4 and 8 weeks: 40° C./75% RH; 50° C.; RT/<5% RH; RT/56% RH; RT/75% RH and 0.3da ICH high intensity light. The compound was analysed after storage by HPLC and by visual inspection.

[3] = Adsorption and desorption of water at 25° C. (Form I)
Procedure: Adsorption and desorption of water at 25° C. at different conditions of relative humidity was investigated on about 10 mg Form I of compound of formula (I), by registering the weight change as a function of relative humidity.
During an initial drying step a weight loss of 0.05% was registered.

[4] = Slurry conversion on mixtures of Form III and Form I (XRPD); details: from RT up to 70° C.
Procedure: 30 mg of mixture of Form III and Form I and 0.25 ml solvent (2-propanol; or ethanol/water (8/2, v/v)) were placed in a vial. For each solvent, 2 vials were prepared and stored each at different temperatures (RT, 70° C.) overnight. After storage, the slurry was spread on a paper filter, the solid fractions were collected and dried 2 hours at RT. The polymorphic composition was measured using XRPD.

[5] = Aqueous solubility of Forms I, III and hydrate at different pH
Procedure: Solubility of polymorph Forms I and III and the hydrate form of the compound of formula (I) was tested in aqueous conditions at different pH values.

[6] = six weeks open storage, 40° C./75% RH
[7] = six weeks open storage, RT/56% RH
[8] = six weeks open storage, RT/75% RH
[9] = six weeks open storage, RT/<5% RH

For `Cn1cc(-c2ccc3nnc(C(F)(F)c4ccc5ncccc5c4)n3n2)cn1` [Form I, 6-{difluoro[6-(1-methyl-1H-pyrazol-4-yl)[1,2,4]triazolo[4,3-b]pyridazin-3-yl]methyl}quinoline], the “DSC Max” value ([1]; 0 days) was 201.0 °C, the “DSC ΔH” value ([1]; 0 days) was 101 J/g and the IR ([1]; 0 days) was “Cryst., Ref”. For the same compound, the TGA <100° C. ([1]; 0 days) was 0.12%, the TGA <240° C. ([1]; 0 days) was 0.36% and the XRD ([1]; 0 days) was “Cryst., Ref”. The Crystallographic stability ([1]; after storage under the different conditions) was “crystallographically stable”, the “DSC Max” value [1, 6] was 200.5 °C and the “DSC ΔH” value [1, 6] was 119 J/g. For the same compound, the IR [1, 6] was “~Ref (identical with Form I reference)”, the TGA <100° C. [1, 6] was 0.33% and the TGA <240° C. [1, 6] was 0.48%. The XRD [1, 6] was “~Ref (identical with Form I reference)”, the IR ([1]; six weeks open storage, 50° C.) was “~Ref (identical with Form I reference)” and the TGA <100° C. ([1]; six weeks open storage, 50° C.) was 0.31%. The TGA <240° C. ([1]; six weeks open storage, 50° C.) was 0.57%, the XRD ([1]; six weeks open storage, 50° C.) was “~Ref (identical with Form I reference)” and the “DSC Max” value [1, 7] was 200.4 °C. The “DSC ΔH” value [1, 7] was 120 J/g, the IR [1, 7] was “±Ref” and the TGA <100° C. [1, 7] was 0.58%. The TGA <240° C. [1, 7] was 0.8%, the XRD [1, 7] was “~Ref (identical with Form I reference)” and the “DSC Max” value [1, 8] was 200.1 °C. For the same compound, the “DSC ΔH” value [1, 8] was 121 J/g, the IR [1, 8] was “±Ref” and the TGA <100° C. [1, 8] was 0.25%. The TGA <240° C. [1, 8] was 0.57%, the XRD [1, 8] was “~Ref (identical with Form I reference)” and the “DSC Max” value [1, 9] was 200.1 °C. For the same compound, the “DSC ΔH” value [1, 9] was 124 J/g, the IR [1, 9] was “~Ref (identical with Form I reference)” and the TGA <100° C. [1, 9] was 0.74%. For the same compound, the TGA <240° C. [1, 9] was 0.75%, the XRD [1, 9] was “~Ref (identical with Form I reference)” and the “HPLC Sum of impurities” value ([2]; 0.3da ICH light, 1 w) was 0.55 w/w %. For the same compound, the Appearance ([2]; 0.3da ICH light, 1 week) was “slightly yellow”, the “HPLC Sum of impurities” value ([2]; 40° C./75% RH, 1 w) was 0.51 w/w % and the Appearance ([2]; 40° C./75% RH, 1 week) was “slightly yellow”. For the same compound, the “HPLC Sum of impurities” value ([2]; 40° C./75% RH, 4 w) was 0.66 w/w %, the Appearance ([2]; 40° C./75% RH, 4 weeks) was “slightly yellow” and the “HPLC Sum of impurities” value ([2]; 40° C./75% RH, 8 w) was 0.54 w/w %. For the same compound, the Appearance ([2]; 40° C./75% RH, 8 weeks) was “slightly yellow”, the “HPLC Sum of impurities” value ([2]; 50° C., 1 w) was 0.56 w/w % and the Appearance ([2]; 50° C., 1 week) was “slightly yellow”. The “HPLC Sum of impurities” value ([2]; 50° C., 4 w) was 0.59 w/w %, the Appearance ([2]; 50° C., 4 weeks) was “slightly yellow” and the “HPLC Sum of impurities” value ([2]; 50° C., 8 w) was 0.54 w/w %. The Appearance ([2]; 50° C., 8 weeks) was “slightly yellow”, the “HPLC Sum of impurities” value ([2]; RT/56% RH, 4 w) was 0.53 w/w % and the Appearance ([2]; RT/56% RH, 4 weeks) was “slightly yellow”. For the same compound, the “HPLC Sum of impurities” value ([2]; RT/56% RH, 8 w) was 0.53 w/w %, the Appearance ([2]; RT/56% RH, 8 weeks) was “slightly yellow” and the “HPLC Sum of impurities” value ([2]; RT/75% RH, 4 w) was 0.53 w/w %. For the same compound, the Appearance ([2]; RT/75% RH, 4 weeks) was “slightly yellow”, the “HPLC Sum of impurities” value ([2]; RT/75% RH, 8 w) was 0.77 w/w % and the Appearance ([2]; RT/75% RH, 8 weeks) was “slightly yellow”. For the same compound, the “HPLC Sum of impurities” value ([2]; RT/<5% RH, 4 w) was 0.62 w/w %, the Appearance ([2]; RT/<5% RH, 4 weeks) was “slightly yellow” and the “HPLC Sum of impurities” value ([2]; RT/<5% RH, 8 w) was 0.53 w/w %. The Appearance ([2]; RT/<5% RH, 8 weeks) was “slightly yellow”, the “HPLC Sum of impurities” value ([2]; Reference, 1 w) was 0.54 w/w % and the Appearance ([2]; Reference, 1 week) was “slightly yellow”. The Chemical stability ([2]; all investigated conditions) was “chemically stable”, the “Weight loss during initial drying step” value ([3]; about 10 mg) was 0.05% and the “Water adsorbed by dry product” value ([3]; depending on the atmospheric humidity) was “up to 0.5%”. The Hygroscopic behaviour ([3]; different relative humidity) was “no hygroscopic behaviour”, the Relative polymorph stability [4] was “most stable polymorph” and the Solubility ([5]; aqueous medium, simulated gastric fluid, thermodynamic from solid, 0.01 HCl, read-out: Solubility) was 100 µg/mL (≈ 265 µM). It also gave a Solubility ([5]; aqueous medium, simulated gastric fluid, thermodynamic from solid, 0.1 HCl, read-out: Solubility) of 1300 µg/mL (≈ 3450 µM), a Solubility ([5]; pH2) of 430 µg/mL (≈ 1140 µM) and a Solubility ([5]; pH4) of 5 µg/mL (≈ 13.3 µM). For the same compound, the Solubility ([5]; pH6) was 3 µg/mL (≈ 7.95 µM), the Solubility ([5]; pH8) was 4 µg/mL (≈ 10.6 µM) and the Solubility ([5]; pH10) was 3 µg/mL (≈ 7.95 µM).
